In patent US7666901B2, “Analogs of 17-hydroxywortmannin as PI3K inhibitors” (Wyeth, priority 2004, dated 2010):
≈ marks a conversion by molar mass, not a printed value.

Legend:
[1] = test system: MDA435 (human breast adenocarcinoma); assay: Cell proliferation (MTS) assay, MDA435; assay type: cell-based; details: Homo sapiens, MDA435, 72 h, Table 2; three days treatment
Outline: (§1)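 Cells plated at about 3000 per well in RPMI-1640/10% FBS were dosed with compound one day later. Viability was read by MTS conversion (absorbance 490 nm, 1–2 h) three days after treatment began. Effect is expressed as percent of vehicle-treated growth on the same plate.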

Human TOR = target: T1, Human TOR (Homo sapiens, UniProt P42345); assay: Human TOR (mTOR) kinase assay, DELFIA format; assay type: biochemical; details: Table 2
T1 construct: FLAG
Outline: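 Purified FLAG-TOR (800 ng/mL) phosphorylates His6-S6K ([…]) with […] ATP in Hepes pH 7.4 buffer containing MnCl2, 2 h at room temperature. Phospho-Thr389 S6K detected by DELFIA using Europium-labelled anti-P(T389)-p70S6K antibody; enzyme inhibition calculated from signal.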

[2] = test system: DU145 (human prostate carcinoma/lymphocytic leukemia); assay: Cell proliferation (MTS) assay, DU145; assay type: cell-based; details: Homo sapiens, DU-145, 72 h, Table 2; three days treatment
Outline: as §1

[3] = test system: phosphor-AKT (S473) in Rat1 cells; assay: Rat1-IGF1 assay (IGF-1 induced phospho-AKT immunoblot); assay type: cell-based, rat; details: Rattus norvegicus, Table 2
Description: Rat1 cells are plated in 6-well culture plates and serum-starved for 24 hours. Serum-starved cells are treated either with control vehicle or with various concentrations of 17-HWT for 2 hours, stimulated by IGF-1 (100 ng/mL) for 30 minutes. Total cellular lysates are prepared using NuPAGE-LDS sample buffer (Invitrogen), sonicated and then clarified by centrifugation. Equal amounts of proteins are subject to immunoblotting analysis using NuPAGE electrophoresis system and probed with phosphor-AKT (S473), total AKT antibodies (Signaling Technology).

[4] = test system: LNCaP (human prostate carcinoma); assay: Cell proliferation (MTS) assay, LNCaP; assay type: cell-based; details: Homo sapiens, LNCaP, 72 h, Table 2; three days treatment
Outline: as §1

[5] = test system: MDA468 (human breast cancer cell); assay: Cell proliferation (MTS) assay, MDA468; assay type: cell-based; details: Homo sapiens, 72 h, Table 2; three days treatment
Outline: as §1

PI3K = test system: T2, PI3K; assay: Fluorescence polarization assay for PI3K; assay type: biochemical; details: Table 2
T2 construct: PI3K FP IC50
Outline: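 PI3K was preincubated with compound at 1% DMSO final, then reacted with PIP2/ATP substrate for 30-60 min. The reaction was stopped with a detector mix giving 10 nM red probe and 70 nM GST-GRP. Fluorescence polarization (mP, Tamra filters) was read 30-90 min later and IC50 determined.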

Row | SMILES | IC50 [1] [µg/mL] | IC50 (Human TOR) [nM] | IC50 [2] [µg/mL] | IC50 [3] [µg/mL] | IC50 [4] [µg/mL] | IC50 [5] [µg/mL] | IC50 (PI3K) [nM]
1 | COCC1OC(=O)C(=CN2CCC(C(=O)O)CC2)C2=C(O)C(=O)C3=C(C(OC(C)=O)CC4(C)C(O)CCC34)C21C (stereo not shown) [Compound 23, 1-(11-Acetoxy-6,17-dihydroxy-1-methoxymethyl-10,13-dimethyl-3,7-dioxo-1,7,10,11,12,13,14,15,16,17-decahydro-2-oxa-cyclopenta[a]phenanthren-4-ylidenemethyl)-piperidine-4-carboxylic acid] | 17 (≈ 30.4 µM) | 822 | 17 (≈ 30.4 µM) | 0.1 (≈ 0.179 µM) | 0.28 (≈ 0.5 µM) | 4 (≈ 7.15 µM) | 33
2 | COCC1OC(=O)C(=CN(C)CCCC(=O)O)C2=C(O)C(=O)C3=C(C(OC(C)=O)CC4(C)C(O)CCC34)C21C (stereo not shown) [Compound 37, 4-[(11-Acetoxy-6,17-dihydroxy-1-methoxymethyl-10,13-dimethyl-3,7-dioxo-1,7,10,11,12,13,14,15,16,17-decahydro-2-oxa-cyclopenta[a]phenanthren-4-ylidenemethyl)-methyl-amino]-butyric acid] | 12 (≈ 21.9 µM) | 12600 | 21 (≈ 38.3 µM) | 0.1 (≈ 0.183 µM) | 0.2 (≈ 0.365 µM) | 4 (≈ 7.3 µM) | 193
3 | CCN(C=C1C(=O)OC(COC)C2(C)C1=C(O)C(=O)C1=C2C(OC(C)=O)CC2(C)C(O)CCC12)CCN(C)C (stereo not shown) [Compound 46, Acetic acid 4-{[(2-dimethylamino-ethyl)-ethyl-amino]-methylene}-6,17-dihydroxy-1-methoxymethyl-10,13-dimethyl-3,7-dioxo-1,3,4,7,10,11,12,13,14,15,16,17-dodecahydro-2-oxa-cyclopenta[a]phenanthren-11-yl ester] | – | 878 | – | 0.02 (≈ 0.0366 µM) | 0.65 (≈ 1.19 µM) | 3.3 (≈ 6.04 µM) | 5.1
4 | COCC1OC(=O)C(=CN2CCC2C(=O)O)C2=C(O)C(=O)C3=C(C(OC(C)=O)CC4(C)C(O)CCC34)C21C (stereo not shown) [Compound 38, 1-(11-Acetoxy-6,17-dihydroxy-1-methoxymethyl-10,13-dimethyl-3,7-dioxo-1,7,10,11,12,13,14,15,16,17-decahydro-2-oxa-cyclopenta[a]phenanthren-4-ylidenemethyl)-azetidine-2-carboxylic acid] | 4 (≈ 7.53 µM) | 9590 | 2.4 (≈ 4.52 µM) | 0.1 (≈ 0.188 µM) | 0.06 (≈ 0.113 µM) | 1.3 (≈ 2.45 µM) | 63
5 | COCC1OC(=O)C(=CN(C)C(C=C(C)C(=O)OC)C(C)C)C2=C(O)C(=O)C3=C(C(OC(C)=O)CC4(C)C(O)CCC34)C21C (stereo not shown) [Compound 24, 4-[(11-Acetoxy-6,17-dihydroxy-1-methoxymethyl-10,13-dimethyl-3,7-dioxo-1,7,10,11,12,13,14,15,16,17-decahydro-2-oxa-cyclopenta[a]phenanthren-4-ylidenemethyl)-methyl-amino]-2,5-dimethyl-hex-2-enoic acid methyl ester] | 10.1 (≈ 16.3 µM) | > 16200 | 4 (≈ 6.5 µM) | > 0.1 | 0.13 (≈ 0.211 µM) | 1.05 (≈ 1.71 µM) | 5400
6 | COCC1OC(=O)C(=CN2CCOCC2)C2=C(O)C(=O)C3=C(C(OC(C)=O)CC4(C)C(O)CCC34)C21C (stereo not shown) [Compound 48, Acetic acid 6,17-dihydroxy-1-methoxymethyl-10,13-dimethyl-4-morpholin-4-ylmethylene-3,7-dioxo-1,3,4,7,10,11,12,13,14,15,16,17-dodecahydro-2-oxa-cyclopenta[a]phenanthren-11-yl ester] | – | 831 | – | 0.02 (≈ 0.0386 µM) | 0.5 (≈ 0.966 µM) | 3 (≈ 5.8 µM) | 36.1

More lines, now with the values ahead:

Row | IC50 [1] [µg/mL] | IC50 (Human TOR) [nM] | IC50 [2] [µg/mL] | IC50 [3] [µg/mL] | IC50 [4] [µg/mL] | IC50 [5] [µg/mL] | IC50 (PI3K) [nM] | SMILES
7 | > 30 | > 14800 | 30 (≈ 44.5 µM) | > 0.1 | 1.8 (≈ 2.67 µM) | 15 (≈ 22.2 µM) | 373 | COCC1OC(=O)C(=CN(Cc2ccccc2)CC23CCCN(CCC2)C3)C2=C(O)C(=O)C3=C(C(OC(C)=O)CC4(C)C(O)CCC34)C21C (stereo not shown) [Compound 29, Acetic acid 4-{[(1-aza-bicyclo[3.3.1]non-5-ylmethyl)-benzyl-amino]-methylene}-6,17-dihydroxy-1-methoxymethyl-10,13-dimethyl-3,7-dioxo-1,3,4,7,10,11,12,13,14,15,16,17-dodecahydro-2-oxa-cyclopenta[a]phenanthren-11-yl ester]
8 | 16 (≈ 23.1 µM) | 1350 | 20.5 (≈ 29.5 µM) | 0.02 (≈ 0.0288 µM) | 0.43 (≈ 0.62 µM) | 4.3 (≈ 6.2 µM) | 15 | COCC1OC(=O)C(=CN(C)CCCN2CCN(c3ccc(OC)cc3)CC2)C2=C(O)C(=O)C3=C(C(OC(C)=O)CC4(C)C(O)CCC34)C21C (stereo not shown) [Compound 25, Acetic acid 6,17-dihydroxy-1-methoxymethyl-4-[({3-[4-(4-methoxy-phenyl)-piperazin-1-yl]-propyl}-methyl-amino)-methylene]-10,13-dimethyl-3,7-dioxo-1,3,4,7,10,11,12,13,14,15,16,17-dodecahydro-2-oxa-cyclopenta[a]phenanthren-11-yl ester]
9 | – | 1110 | – | 0.02 (≈ 0.0378 µM) | 0.37 (≈ 0.699 µM) | 3 (≈ 5.66 µM) | 60.2 | COCC1OC(=O)C(=CN2CCC(=O)CC2)C2=C(O)C(=O)C3=C(C(OC(C)=O)CC4(C)C(O)CCC34)C21C (stereo not shown) [Compound 44, Acetic acid 6,17-dihydroxy-1-methoxymethyl-10,13-dimethyl-3,7-dioxo-4-(4-oxo-piperidin-1-ylmethylene)-1,3,4,7,10,11,12,13,14,15,16,17-dodecahydro-2-oxa-cyclopenta[a]phenanthren-11-yl ester]
10 | 11 (≈ 17.8 µM) | 3560 | 12 (≈ 19.4 µM) | 0.1 (≈ 0.162 µM) | 0.16 (≈ 0.259 µM) | 3.9 (≈ 6.31 µM) | 22 | COCC1OC(=O)C(=CN(CCCN(C)C)CCCN(C)C)C2=C(O)C(=O)C3=C(C(OC(C)=O)CC4(C)C(O)CCC34)C21C (stereo not shown) [Compound 21, Acetic acid 4-{[bis-(3-dimethylamino-propyl)-amino]-methylene}-6,17-dihydroxy-1-methoxymethyl-10,13-dimethyl-3,7-dioxo-1,3,4,7,10,11,12,13,14,15,16,17-dodecahydro-2-oxa-cyclopenta[a]phenanthren-11-yl ester]
11 | 21 (≈ 32.6 µM) | 1200 | 21 (≈ 32.6 µM) | 0.02 (≈ 0.0311 µM) | 0.41 (≈ 0.637 µM) | 4 (≈ 6.21 µM) | 46 | COCC1OC(=O)C(=CN2CCN(CCCN3CCOCC3)CC2)C2=C(O)C(=O)C3=C(C(OC(C)=O)CC4(C)C(O)CCC34)C21C (stereo not shown) [Compound 30, Acetic acid 6,17-dihydroxy-1-methoxymethyl-10,13-dimethyl-4-[4-(3-morpholin-4-yl-propyl)-piperazin-1-ylmethylene]-3,7-dioxo-1,3,4,7,10,11,12,13,14,15,16,17-dodecahydro-2-oxa-cyclopenta[a]phenanthren-11-yl ester]
12 | – | 568 | – | 0.05 (≈ 0.0835 µM) | 0.9 (≈ 1.5 µM) | 5.8 (≈ 9.69 µM) | 63.3 | COCC1OC(=O)C(=CN2CCC(N3CCCCC3)CC2)C2=C(O)C(=O)C3=C(C(OC(C)=O)CC4(C)C(O)CCC34)C21C (stereo not shown) [Compound 47, Acetic acid 4-[1,4′]bipiperidinyl-1′-ylmethylene-6,17-dihydroxy-1-methoxymethyl-10,13-dimethyl-3,7-dioxo-1,3,4,7,10,11,12,13,14,15,16,17-dodecahydro-2-oxa-cyclopenta[a]phenanthren-11-yl ester]
13 | 11 (≈ 15.1 µM) | > 13700 | 8.5 (≈ 11.7 µM) | > 0.1 | 0.12 (≈ 0.165 µM) | 3 (≈ 4.12 µM) | 131 | CCN(CC)CCCN(C=C1C(=O)OC(COC)C2(C)C1=C(O)C(=O)C1=C2C(OC(C)=O)CC2(C)C(O)CCC12)CCS(=O)(=O)c1ccccc1 (stereo not shown) [Compound 28, Acetic acid 4-{[(2-benzenesulfonyl-ethyl)-(3-diethylamino-propyl)-amino]-methylene}-6,17-dihydroxy-1-methoxymethyl-10,13-dimethyl-3,7-dioxo-1,3,4,7,10,11,12,13,14,15,16,17-dodecahydro-2-oxa-cyclopenta[a]phenanthren-11-yl ester]
14 | – | > 20500 | – | 0.1 (≈ 0.205 µM) | 0.65 (≈ 1.33 µM) | 5 (≈ 10.2 µM) | 369 | CCN(C=C1C(=O)OC(COC)C2(C)C3=C(C(=O)C(O)=C12)C1CCC(O)C1(C)CC3)CCN(C)C (stereo not shown) [Compound 45, 4-{[(2-Dimethylamino-ethyl)-ethyl-amino]-methylene}-6,17-dihydroxy-1-methoxymethyl-10,13-dimethyl-10,11,12,13,14,15,16,17-octahydro-1H,4H-2-oxa-cyclopenta[a]phenanthrene-3,7-dione]
